Source: the NIST ThermoML archive (doi:10.1016/j.jct.2006.01.015)
Numbers after ± are expanded uncertainties.

Assay: xn = mol fraction of the nth substance listed
Settings: 101 kPa, Liquid

CC(=O)N(C)C [N,N-dimethylethanamide] + CC#N
mass density [kg/m3]
Settings | 293.15 K | 298.15 K | 303.15 K | 308.15 K | 313.15 K | 318.15 K
x2 = 0 | 941 ± 0.9 | 936.5 ± 0.9 | 932 ± 1 | 927.6 ± 1 | 923.1 ± 1 | 918.6 ± 1.1
x2 = 0.0815 | 934.2 ± 0.9 | 929.7 ± 0.9 | 925.2 ± 1 | 920.7 ± 1 | 916.2 ± 1 | 911.7 ± 1.1
x2 = 0.1674 | 926.3 ± 0.9 | 921.8 ± 0.9 | 917.3 ± 0.9 | 912.8 ± 1 | 908.3 ± 1 | 903.9 ± 1.1
x2 = 0.2386 | 919.2 ± 0.9 | 914.7 ± 0.9 | 910.2 ± 0.9 | 905.7 ± 1 | 901.2 ± 1 | 896.8 ± 1.1
x2 = 0.3133 | 911.2 ± 0.8 | 906.7 ± 0.9 | 902.2 ± 0.9 | 897.7 ± 1 | 893.2 ± 1 | 888.8 ± 1
x2 = 0.3689 | 904.8 ± 0.8 | 900.3 ± 0.9 | 895.8 ± 0.9 | 891.3 ± 1 | 886.8 ± 1 | 882.4 ± 1
x2 = 0.4223 | 898.3 ± 0.8 | 893.8 ± 0.9 | 889.3 ± 0.9 | 884.8 ± 0.9 | 880.3 ± 1 | 875.8 ± 1
x2 = 0.4722 | 891.8 ± 0.8 | 887.3 ± 0.9 | 882.7 ± 0.9 | 878.2 ± 0.9 | 873.7 ± 1 | 869.2 ± 1
x2 = 0.5387 | 882.5 ± 0.8 | 877.9 ± 0.8 | 873.3 ± 0.9 | 868.8 ± 0.9 | 864.2 ± 1 | 859.7 ± 1
x2 = 0.581 | 876.1 ± 0.8 | 871.5 ± 0.8 | 866.9 ± 0.9 | 862.3 ± 0.9 | 857.7 ± 1 | 853.1 ± 1
x2 = 0.6379 | 866.9 ± 0.8 | 862.2 ± 0.8 | 857.6 ± 0.9 | 852.9 ± 0.9 | 848.3 ± 1 | 843.6 ± 1
x2 = 0.6794 | 859.7 ± 0.8 | 855 ± 0.8 | 850.2 ± 0.9 | 845.5 ± 0.9 | 840.8 ± 0.9 | 836.1 ± 1
x2 = 0.7236 | 851.5 ± 0.8 | 846.7 ± 0.8 | 841.9 ± 0.9 | 837.1 ± 0.9 | 832.3 ± 0.9 | 827.5 ± 1
x2 = 0.8071 | 833.9 ± 0.7 | 829 ± 0.8 | 824.1 ± 0.8 | 819.2 ± 0.9 | 814.3 ± 0.9 | 809.4 ± 1
x2 = 0.8776 | 817 ± 0.7 | 812 ± 0.8 | 807 ± 0.8 | 802 ± 0.8 | 797 ± 0.9 | 792 ± 0.9
x2 = 0.9424 | 799.4 ± 0.7 | 794.3 ± 0.7 | 789.2 ± 0.8 | 784.1 ± 0.8 | 779 ± 0.9 | 773.9 ± 0.9

CC#N [acetonitrile] + CN(C)C=O
mass density [kg/m3]
Settings | 293.15 K | 298.15 K | 303.15 K | 308.15 K | 313.15 K | 318.15 K
x1 = 0.0654 | 942 ± 0.9 | 937.5 ± 0.9 | 933 ± 1 | 928.6 ± 1 | 924.1 ± 1 | 919.6 ± 1.1
x1 = 0.1303 | 934.6 ± 0.9 | 930.1 ± 0.9 | 925.6 ± 1 | 921.2 ± 1 | 916.7 ± 1 | 912.2 ± 1.1
x1 = 0.1912 | 927.4 ± 0.9 | 922.9 ± 0.9 | 918.4 ± 0.9 | 914 ± 1 | 909.4 ± 1 | 904.9 ± 1.1
x1 = 0.2586 | 919 ± 0.9 | 914.5 ± 0.9 | 909.9 ± 0.9 | 905.5 ± 1 | 900.9 ± 1 | 896.4 ± 1.1
x1 = 0.3204 | 910.9 ± 0.8 | 906.3 ± 0.9 | 901.7 ± 0.9 | 897.2 ± 1 | 892.6 ± 1 | 888.1 ± 1
x1 = 0.3851 | 902 ± 0.8 | 897.4 ± 0.9 | 892.7 ± 0.9 | 888.2 ± 1 | 883.6 ± 1 | 879 ± 1
x1 = 0.4596 | 891.2 ± 0.8 | 886.5 ± 0.9 | 881.8 ± 0.9 | 877.2 ± 0.9 | 872.5 ± 1 | 867.9 ± 1
x1 = 0.5125 | 883.1 ± 0.8 | 878.4 ± 0.8 | 873.6 ± 0.9 | 869 ± 0.9 | 864.2 ± 1 | 859.5 ± 1
x1 = 0.5925 | 870 ± 0.8 | 865.2 ± 0.8 | 860.4 ± 0.9 | 855.7 ± 0.9 | 850.9 ± 1 | 846.1 ± 1
x1 = 0.6402 | 861.7 ± 0.8 | 856.9 ± 0.8 | 852 ± 0.9 | 847.3 ± 0.9 | 842.5 ± 0.9 | 837.6 ± 1
x1 = 0.6899 | 852.6 ± 0.8 | 847.8 ± 0.8 | 842.9 ± 0.9 | 838.1 ± 0.9 | 833.2 ± 0.9 | 828.3 ± 1
x1 = 0.731 | 844.7 ± 0.8 | 839.8 ± 0.8 | 834.9 ± 0.8 | 830 ± 0.9 | 825.1 ± 0.9 | 820.2 ± 1
x1 = 0.7736 | 836.1 ± 0.8 | 831.1 ± 0.8 | 826.1 ± 0.8 | 821.2 ± 0.9 | 816.3 ± 0.9 | 811.4 ± 1
x1 = 0.8522 | 818.9 ± 0.7 | 813.9 ± 0.8 | 808.9 ± 0.8 | 803.9 ± 0.9 | 798.9 ± 0.9 | 793.9 ± 0.9
x1 = 0.9359 | 798.9 ± 0.7 | 793.8 ± 0.7 | 788.7 ± 0.8 | 783.6 ± 0.8 | 778.5 ± 0.9 | 773.4 ± 0.9
x1 = 1 | 782.1 ± 0.7 | 776.8 ± 0.7 | 771.5 ± 0.8 | 766.3 ± 0.8 | 761 ± 0.8 | 755.7 ± 0.9

NC=O [formamide] + CC#N
mass density [kg/m3]
Settings | 293.15 K | 298.15 K | 303.15 K | 308.15 K | 313.15 K | 318.15 K
x2 = 0 | 1133 ± 1.2 | 1129 ± 1.2 | 1125 ± 1.2 | 1121 ± 1.3 | 1117 ± 1.3 | 1113 ± 1.4
x2 = 0.0764 | 1104.3 ± 1.1 | 1099.7 ± 1.2 | 1095.1 ± 1.2 | 1090.5 ± 1.2 | 1085.9 ± 1.3 | 1081.3 ± 1.3
x2 = 0.161 | 1073.2 ± 1.1 | 1068.1 ± 1.1 | 1063 ± 1.2 | 1057.9 ± 1.2 | 1052.8 ± 1.2 | 1047.7 ± 1.3
x2 = 0.2485 | 1041.1 ± 1 | 1035.7 ± 1.1 | 1030.3 ± 1.1 | 1024.7 ± 1.2 | 1019.3 ± 1.2 | 1013.9 ± 1.2
x2 = 0.2976 | 1022.9 ± 1 | 1017.3 ± 1 | 1011.7 ± 1.1 | 1006.1 ± 1.1 | 1000.5 ± 1.2 | 994.9 ± 1.2
x2 = 0.3444 | 1005.4 ± 1 | 999.7 ± 1 | 994 ± 1.1 | 988.3 ± 1.1 | 982.6 ± 1.1 | 976.9 ± 1.2
x2 = 0.412 | 980.1 ± 1 | 974.3 ± 1 | 968.5 ± 1 | 962.7 ± 1.1 | 956.9 ± 1.1 | 951.1 ± 1.1
x2 = 0.4728 | 957.8 ± 0.9 | 951.9 ± 1 | 946 ± 1 | 940.2 ± 1 | 934.3 ± 1.1 | 928.3 ± 1.1
x2 = 0.5336 | 935.9 ± 0.9 | 930 ± 0.9 | 924.1 ± 1 | 918.2 ± 1 | 912.3 ± 1 | 906.4 ± 1.1
x2 = 0.5862 | 917.2 ± 0.9 | 911.3 ± 0.9 | 905.4 ± 0.9 | 899.6 ± 1 | 893.7 ± 1 | 887.8 ± 1.1
x2 = 0.6388 | 898.9 ± 0.8 | 893 ± 0.9 | 887.1 ± 0.9 | 881.3 ± 1 | 875.4 ± 1 | 869.5 ± 1
x2 = 0.6994 | 878 ± 0.8 | 872.2 ± 0.9 | 866.4 ± 0.9 | 860.6 ± 0.9 | 854.8 ± 1 | 849 ± 1
x2 = 0.7554 | 859.1 ± 0.8 | 853.4 ± 0.8 | 847.7 ± 0.9 | 842 ± 0.9 | 836.3 ± 0.9 | 830.4 ± 1
x2 = 0.8143 | 839.6 ± 0.8 | 834 ± 0.8 | 828.1 ± 0.8 | 822.6 ± 0.9 | 817 ± 0.9 | 811.4 ± 1
x2 = 0.8754 | 820 ± 0.7 | 814.5 ± 0.8 | 809 ± 0.8 | 803.5 ± 0.9 | 798 ± 0.9 | 792.5 ± 0.9
x2 = 0.9398 | 800.1 ± 0.7 | 794.7 ± 0.8 | 789.2 ± 0.8 | 783.8 ± 0.8 | 778.4 ± 0.9 | 773 ± 0.9
